In patent publication US7999136B2 (priority 2007, dated 2011):

How the values were obtained:
[1] = system: Puccinia recondita f. sp. tritici; assay: Test of curative effect on wheat leaf rust; type: in vivo; details: wheat (Shirogane), foliage application 500 ppm, curative (1 day after inoculation), 6 days after application
Description: (§1) The controlling effect was evaluated by visually observing the area or lesion spots on each of test plants at the time of investigation and comparing the area of lesion spots on a plant treated with the present compound with that on an untreated plant.
Test of Curative Effect on Wheat Leaf Rust (Puccinia recondita f. sp. tritici)
Each of plastic pots was filled with sandy loam and sown with wheat (cultivar: Shirogane), followed by growing in a greenhouse for 9 days. The plant was inoculated by sprinkling with spores of Puccinia recondita f. sp. tritici. After the inoculation, the plant was held under darkness and high humidity conditions at 23° C. for 1 day and then air-dried to give a seedling infected with Puccinia recondita f. sp. tritici. The present compound 10 was formulated into a flowable formulation according to Formulation Example 6. The flowable formulation was diluted to a predetermined concentration (500 ppm) with water, and foliage application of the dilution was carried out so that the dilution adhered sufficiently to the surfaces of leaves of the above plant. After the foliage application, the plant was air-dried and held under lighting conditions for 6 days, and then the area of lesions was investigated.

[2] = system: Erysiphe graminis f. sp. tritici; assay: Test of preventive effect on wheat powdery mildew; type: in vivo; details: wheat (Shirogane), foliage application 500 ppm, 7 days after inoculation
Description: as §1
Test of Preventive Effect on Wheat Powdery Mildew (Erysiphe graminis f. sp. tritici)
Each of plastic pots was filled with sandy loam and sown with wheat (cultivar: Shirogane), followed by growing in a greenhouse for 10 days. The present compound 8 was formulated into a flowable formulation according to Formulation Example 6. The flowable formulation was diluted to a predetermined concentration (500 ppm) with water, and foliage application of the dilution was carried out so that the dilution adhered sufficiently to the surfaces of leaves of the grown wheat young seedling. After the foliage application, the plant was air-dried and then inoculated by sprinkling with spores of Erysiphe graminis f. sp. tritici. After the inoculation, the plant was held in a greenhouse at 23° C. for 7 days and the area of lesion spots was investigated.

| SMILES | area of lesion spots on the treated plant relative to that on an untreated plant [1] [%] | area of lesion spots on the treated plant relative to that on an untreated plant [2] [%] |
| --- | --- | --- |
| C#CCOc1cc(F)c(C(=O)NC(C)C(C)C)cc1F (centres unmarked) [compound 10] | ≤ 30 | – |
| C#CCOc1cc(F)c(C(=O)NCC2CCCCC2)cc1F [compound 8] | – | ≤ 30 |
